Assay results: ChEMBL document CHEMBL4507265 (2021)

Legend:
[1] = molecular target: Death-associated protein kinase 3 (Homo sapiens) (UniProt O43293); settings: Compound concentration 1000.0 nM
[2] = molecular target: Serine/threonine-protein kinase 32A (Homo sapiens) (UniProt Q8WU08); settings: Compound concentration 1000.0 nM
[3] = molecular target: Dual specificity mitogen-activated protein kinase kinase 4 (Homo sapiens) (UniProt P45985); settings: Compound concentration 1000.0 nM
[4] = molecular target: Cyclin-dependent kinase 13 (Homo sapiens) (UniProt Q14004); settings: Compound concentration 1000.0 nM
[5] = molecular target: Serine/threonine-protein kinase Nek4 (Homo sapiens) (UniProt P51957); settings: Compound concentration 1000.0 nM
[6] = molecular target: Ribosomal protein S6 kinase alpha-3 (Homo sapiens) (UniProt P51812); settings: Compound concentration 1000.0 nM
Sequence of Ribosomal protein S6 kinase alpha-3 (Homo sapiens) (P51812 whole entry): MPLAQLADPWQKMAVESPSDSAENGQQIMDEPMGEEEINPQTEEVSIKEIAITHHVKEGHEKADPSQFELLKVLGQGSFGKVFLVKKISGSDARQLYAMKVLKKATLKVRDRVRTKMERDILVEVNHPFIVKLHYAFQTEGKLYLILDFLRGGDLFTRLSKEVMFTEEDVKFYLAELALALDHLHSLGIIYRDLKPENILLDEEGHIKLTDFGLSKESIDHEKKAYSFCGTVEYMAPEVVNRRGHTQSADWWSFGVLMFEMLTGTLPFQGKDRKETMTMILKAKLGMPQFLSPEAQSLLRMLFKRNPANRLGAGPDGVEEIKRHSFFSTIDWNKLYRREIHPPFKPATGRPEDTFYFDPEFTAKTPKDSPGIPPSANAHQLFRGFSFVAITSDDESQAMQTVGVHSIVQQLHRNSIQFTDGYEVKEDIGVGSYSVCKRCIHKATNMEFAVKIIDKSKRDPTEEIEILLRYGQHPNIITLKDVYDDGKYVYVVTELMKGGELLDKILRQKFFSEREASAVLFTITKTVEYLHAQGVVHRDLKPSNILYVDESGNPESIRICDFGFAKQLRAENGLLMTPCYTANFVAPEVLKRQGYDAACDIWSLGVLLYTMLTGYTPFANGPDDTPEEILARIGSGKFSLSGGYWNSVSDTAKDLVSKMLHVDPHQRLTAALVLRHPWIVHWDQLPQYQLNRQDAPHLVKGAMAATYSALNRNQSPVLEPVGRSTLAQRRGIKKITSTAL

[7] = molecular target: cGMP-dependent protein kinase 1 (Homo sapiens) (UniProt Q13976); settings: Compound concentration 1000.0 nM
[8] = molecular target: Serine/threonine-protein kinase PRP4 homolog (Homo sapiens) (UniProt Q13523); settings: Compound concentration 1000.0 nM
Sequence of Serine/threonine-protein kinase PRP4 homolog (Homo sapiens) (Q13523 whole entry): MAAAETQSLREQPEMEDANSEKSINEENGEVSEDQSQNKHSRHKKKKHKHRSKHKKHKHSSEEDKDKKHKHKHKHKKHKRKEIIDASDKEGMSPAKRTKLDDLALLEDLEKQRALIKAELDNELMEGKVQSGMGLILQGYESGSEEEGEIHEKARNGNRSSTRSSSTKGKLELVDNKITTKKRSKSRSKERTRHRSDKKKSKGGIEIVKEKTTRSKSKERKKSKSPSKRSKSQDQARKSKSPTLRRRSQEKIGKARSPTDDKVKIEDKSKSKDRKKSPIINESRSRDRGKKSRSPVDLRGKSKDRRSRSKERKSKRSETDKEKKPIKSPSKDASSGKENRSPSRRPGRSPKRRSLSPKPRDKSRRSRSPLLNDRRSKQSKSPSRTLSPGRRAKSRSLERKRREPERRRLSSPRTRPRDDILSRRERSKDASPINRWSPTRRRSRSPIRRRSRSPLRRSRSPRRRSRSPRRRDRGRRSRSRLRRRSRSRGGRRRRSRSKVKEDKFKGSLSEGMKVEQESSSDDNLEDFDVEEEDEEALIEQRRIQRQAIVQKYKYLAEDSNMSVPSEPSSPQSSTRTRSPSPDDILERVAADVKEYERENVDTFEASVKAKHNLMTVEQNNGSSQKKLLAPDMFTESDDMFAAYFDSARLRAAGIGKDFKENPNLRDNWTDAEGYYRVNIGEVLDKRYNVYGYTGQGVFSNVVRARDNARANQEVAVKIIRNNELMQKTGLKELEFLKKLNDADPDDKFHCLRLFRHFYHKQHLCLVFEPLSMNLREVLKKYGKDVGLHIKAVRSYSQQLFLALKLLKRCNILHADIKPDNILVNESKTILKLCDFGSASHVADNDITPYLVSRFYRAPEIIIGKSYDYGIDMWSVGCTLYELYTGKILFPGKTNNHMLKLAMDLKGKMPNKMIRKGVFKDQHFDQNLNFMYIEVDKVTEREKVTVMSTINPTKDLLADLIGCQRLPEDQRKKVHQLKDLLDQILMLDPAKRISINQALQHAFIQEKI

[9] = molecular target: Ribosomal protein S6 kinase alpha-2 (Homo sapiens) (UniProt Q15349); settings: Compound concentration 1000.0 nM
[10] = molecular target: Mu-type opioid receptor (Homo sapiens) (UniProt P35372); settings: Compound concentration 10.0 uM
[11] = molecular target: Ribosomal protein S6 kinase alpha-4 (Homo sapiens) (UniProt O75676); settings: Compound concentration 1000.0 nM
[12] = molecular target: Cyclin-dependent kinase-like 5 (Homo sapiens) (UniProt O76039); settings: Compound concentration 1000.0 nM
[13] = molecular target: Mitogen-activated protein kinase 9 (Homo sapiens) (UniProt P45984); settings: Compound concentration 1000.0 nM
[14] = molecular target: SRSF protein kinase 2 (Homo sapiens) (UniProt P78362); settings: Compound concentration 1000.0 nM
[15] = molecular target: Vascular endothelial growth factor receptor 2 (Homo sapiens) (UniProt P35968); settings: Compound concentration 1000.0 nM
[16] = molecular target: Receptor-interacting serine/threonine-protein kinase 1 (Homo sapiens) (UniProt Q13546); settings: Compound concentration 1000.0 nM
Sequence of Receptor-interacting serine/threonine-protein kinase 1 (Homo sapiens) (Q13546 whole entry): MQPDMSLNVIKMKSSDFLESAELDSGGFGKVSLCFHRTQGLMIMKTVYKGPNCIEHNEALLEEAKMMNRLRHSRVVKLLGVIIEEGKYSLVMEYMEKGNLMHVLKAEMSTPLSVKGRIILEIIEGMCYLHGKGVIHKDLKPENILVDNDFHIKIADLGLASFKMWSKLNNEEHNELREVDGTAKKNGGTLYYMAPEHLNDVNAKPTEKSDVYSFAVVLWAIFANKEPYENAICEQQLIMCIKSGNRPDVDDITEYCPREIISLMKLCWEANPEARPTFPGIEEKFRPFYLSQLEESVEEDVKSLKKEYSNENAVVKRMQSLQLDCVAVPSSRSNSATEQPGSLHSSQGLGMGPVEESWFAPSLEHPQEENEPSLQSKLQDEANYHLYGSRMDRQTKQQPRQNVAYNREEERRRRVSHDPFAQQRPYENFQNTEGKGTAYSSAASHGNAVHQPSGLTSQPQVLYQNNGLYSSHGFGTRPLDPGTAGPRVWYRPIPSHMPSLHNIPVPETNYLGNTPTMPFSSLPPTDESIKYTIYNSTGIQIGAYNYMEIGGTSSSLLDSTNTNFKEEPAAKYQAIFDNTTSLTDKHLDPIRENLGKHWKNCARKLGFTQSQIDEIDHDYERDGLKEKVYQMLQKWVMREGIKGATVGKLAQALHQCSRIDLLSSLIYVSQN

[17] = molecular target: Dual specificity protein kinase TTK (Homo sapiens) (UniProt P33981); settings: Compound concentration 1000.0 nM
[18] = molecular target: Serine/threonine-protein kinase DCLK1 (Homo sapiens) (UniProt O15075); settings: Compound concentration 1000.0 nM
[19] = molecular target: SRSF protein kinase 1 (Homo sapiens) (UniProt Q96SB4); settings: Compound concentration 1000.0 nM
[20] = molecular target: Tyrosine-protein kinase ITK/TSK (Homo sapiens) (UniProt Q08881); settings: Compound concentration 1000.0 nM
[21] = molecular target: Casein kinase I isoform gamma-3 (Homo sapiens) (UniProt Q9Y6M4); settings: Compound concentration 1000.0 nM
[22] = molecular target: Serine/threonine-protein kinase 17B (Homo sapiens) (UniProt O94768); settings: Compound concentration 1000.0 nM
[23] = molecular target: Activin receptor type-1 (Homo sapiens) (UniProt Q04771); settings: Compound concentration 1000.0 nM
[24] = molecular target: Insulin receptor-related protein (Homo sapiens) (UniProt P14616); settings: Compound concentration 1000.0 nM
[25] = molecular target: Serine/threonine-protein kinase Nek2 (Homo sapiens) (UniProt P51955); settings: Compound concentration 1000.0 nM
[26] = molecular target: Mast/stem cell growth factor receptor Kit (Homo sapiens) (UniProt P10721); settings: Compound concentration 1000.0 nM
[27] = molecular target: Serine/threonine-protein kinase WNK1 (Homo sapiens) (UniProt Q9H4A3); settings: Compound concentration 1000.0 nM
Sequence of Serine/threonine-protein kinase WNK1 (Homo sapiens) (Q9H4A3 whole entry, looked up): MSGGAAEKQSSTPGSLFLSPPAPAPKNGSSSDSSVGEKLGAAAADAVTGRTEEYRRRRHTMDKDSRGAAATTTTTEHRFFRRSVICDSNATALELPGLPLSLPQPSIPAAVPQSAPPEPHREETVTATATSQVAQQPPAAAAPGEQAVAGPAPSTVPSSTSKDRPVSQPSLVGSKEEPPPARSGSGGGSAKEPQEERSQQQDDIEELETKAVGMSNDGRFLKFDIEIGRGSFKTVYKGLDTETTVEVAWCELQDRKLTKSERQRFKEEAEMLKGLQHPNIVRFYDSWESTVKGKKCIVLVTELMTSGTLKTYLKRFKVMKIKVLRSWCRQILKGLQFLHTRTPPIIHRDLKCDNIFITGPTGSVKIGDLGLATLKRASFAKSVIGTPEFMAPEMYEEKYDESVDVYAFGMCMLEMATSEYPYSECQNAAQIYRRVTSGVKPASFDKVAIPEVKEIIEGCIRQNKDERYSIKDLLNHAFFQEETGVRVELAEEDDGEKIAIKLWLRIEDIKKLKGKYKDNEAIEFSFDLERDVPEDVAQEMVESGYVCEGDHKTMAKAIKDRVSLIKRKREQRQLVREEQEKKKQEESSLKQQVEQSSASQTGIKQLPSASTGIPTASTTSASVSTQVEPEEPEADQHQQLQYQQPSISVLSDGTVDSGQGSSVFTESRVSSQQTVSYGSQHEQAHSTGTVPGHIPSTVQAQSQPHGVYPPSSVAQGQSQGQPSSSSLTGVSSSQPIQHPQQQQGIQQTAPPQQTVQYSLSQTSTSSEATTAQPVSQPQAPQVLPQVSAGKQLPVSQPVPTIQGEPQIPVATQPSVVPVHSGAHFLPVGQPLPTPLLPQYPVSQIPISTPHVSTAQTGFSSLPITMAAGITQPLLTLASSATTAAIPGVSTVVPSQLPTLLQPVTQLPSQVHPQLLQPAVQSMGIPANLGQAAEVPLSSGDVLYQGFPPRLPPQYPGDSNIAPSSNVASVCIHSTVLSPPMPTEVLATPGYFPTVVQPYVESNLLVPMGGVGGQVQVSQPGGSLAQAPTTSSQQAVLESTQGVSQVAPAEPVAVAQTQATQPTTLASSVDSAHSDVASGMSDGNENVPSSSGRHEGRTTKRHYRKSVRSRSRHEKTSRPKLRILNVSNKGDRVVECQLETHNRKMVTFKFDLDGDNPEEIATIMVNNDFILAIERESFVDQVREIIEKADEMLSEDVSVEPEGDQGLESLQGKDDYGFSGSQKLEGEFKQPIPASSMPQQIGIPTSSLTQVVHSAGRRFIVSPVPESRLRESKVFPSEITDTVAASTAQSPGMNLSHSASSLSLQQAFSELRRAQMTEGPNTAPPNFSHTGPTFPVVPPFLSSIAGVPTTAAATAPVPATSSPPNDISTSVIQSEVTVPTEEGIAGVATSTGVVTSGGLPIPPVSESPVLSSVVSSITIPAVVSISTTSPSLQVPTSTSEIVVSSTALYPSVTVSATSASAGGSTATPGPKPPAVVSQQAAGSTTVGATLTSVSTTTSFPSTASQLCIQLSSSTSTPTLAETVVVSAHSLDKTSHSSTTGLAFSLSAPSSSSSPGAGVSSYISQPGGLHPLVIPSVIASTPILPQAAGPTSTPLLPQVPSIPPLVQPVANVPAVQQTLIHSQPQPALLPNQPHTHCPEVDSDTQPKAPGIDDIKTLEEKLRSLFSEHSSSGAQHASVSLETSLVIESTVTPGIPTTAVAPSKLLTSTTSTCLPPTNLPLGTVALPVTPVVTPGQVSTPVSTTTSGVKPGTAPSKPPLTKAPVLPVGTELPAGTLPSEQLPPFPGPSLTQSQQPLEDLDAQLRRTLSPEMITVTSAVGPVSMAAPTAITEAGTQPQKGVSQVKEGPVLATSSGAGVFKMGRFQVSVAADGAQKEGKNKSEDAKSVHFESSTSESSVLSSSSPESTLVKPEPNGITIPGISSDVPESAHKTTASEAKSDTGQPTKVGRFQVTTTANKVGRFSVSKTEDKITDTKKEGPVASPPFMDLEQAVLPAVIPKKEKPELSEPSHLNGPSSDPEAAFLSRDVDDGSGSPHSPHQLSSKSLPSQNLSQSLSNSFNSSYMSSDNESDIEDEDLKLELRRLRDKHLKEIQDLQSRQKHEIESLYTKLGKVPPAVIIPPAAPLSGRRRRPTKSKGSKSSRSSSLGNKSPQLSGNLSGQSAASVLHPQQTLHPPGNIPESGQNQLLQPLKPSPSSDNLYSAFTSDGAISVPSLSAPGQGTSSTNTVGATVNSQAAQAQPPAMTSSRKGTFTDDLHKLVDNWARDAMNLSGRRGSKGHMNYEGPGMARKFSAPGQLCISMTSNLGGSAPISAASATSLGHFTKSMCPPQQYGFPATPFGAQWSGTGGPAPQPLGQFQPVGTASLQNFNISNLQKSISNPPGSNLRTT

[28] = test system: Mast/stem cell growth factor receptor Kit (Homo sapiens), P10721 [D816V]; settings: Compound concentration 1000.0 nM
[29] = molecular target: Serine/threonine-protein kinase RIO2 (Homo sapiens) (UniProt Q9BVS4); settings: Compound concentration 1000.0 nM
[30] = molecular target: Activin receptor type-2A (Homo sapiens) (UniProt P27037); settings: Compound concentration 1000.0 nM
[31] = test system: Proto-oncogene tyrosine-protein kinase receptor Ret (Homo sapiens), P07949 [V804M]; settings: Compound concentration 1000.0 nM
[32] = molecular target: T1, Muscarinic acetylcholine receptor M2 (Homo sapiens) (UniProt P08172); settings: Compound concentration 10.0 uM
T1 sequence (whole entry): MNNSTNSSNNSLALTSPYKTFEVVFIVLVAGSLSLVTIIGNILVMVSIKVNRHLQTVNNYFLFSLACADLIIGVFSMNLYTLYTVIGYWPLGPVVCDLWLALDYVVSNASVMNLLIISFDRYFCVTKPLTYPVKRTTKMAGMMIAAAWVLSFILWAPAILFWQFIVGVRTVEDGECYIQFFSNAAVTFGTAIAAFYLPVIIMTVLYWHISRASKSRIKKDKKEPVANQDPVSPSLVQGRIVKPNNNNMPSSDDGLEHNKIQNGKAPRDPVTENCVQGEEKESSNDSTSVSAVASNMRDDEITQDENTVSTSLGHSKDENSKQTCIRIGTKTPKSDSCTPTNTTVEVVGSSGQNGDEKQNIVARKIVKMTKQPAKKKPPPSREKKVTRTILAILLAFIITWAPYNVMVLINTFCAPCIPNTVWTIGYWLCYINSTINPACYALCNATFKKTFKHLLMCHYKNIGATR

[33] = molecular target: Serine/threonine-protein kinase DCLK3 (Homo sapiens) (UniProt Q9C098); settings: Compound concentration 1000.0 nM
[34] = molecular target: Ribosomal protein S6 kinase alpha-6 (Homo sapiens) (UniProt Q9UK32); settings: Compound concentration 1000.0 nM
[35] = molecular target: Hepatocyte growth factor receptor (Homo sapiens) (UniProt P08581); settings: Compound concentration 1000.0 nM
[36] = test system: Tyrosine-protein kinase ABL1 (Homo sapiens), P00519 [Y253F]; settings: Compound concentration 1000.0 nM
[37] = test system: Epidermal growth factor receptor (Homo sapiens), P00533 [T790M]; settings: Compound concentration 1000.0 nM
[38] = molecular target: Megakaryocyte-associated tyrosine-protein kinase (Homo sapiens) (UniProt P42679); settings: Compound concentration 1000.0 nM
[39] = molecular target: Serine/threonine-protein kinase haspin (Homo sapiens) (UniProt Q8TF76); settings: Compound concentration 1000.0 nM

NS(=O)(=O)c1cc(NC(=O)Cc2ccccc2)ccc1Oc1cccc(Cl)c1 [BAY-1797]
inactive: residual activity [1] 95% | residual activity [2] 100% | residual activity [3] 82% | residual activity [4] 92% | residual activity [5] 98% | residual activity [6] 98% | residual activity [7] 100% | residual activity [8] 97% | residual activity [9] 89% | inhibition [10] 19.3% | residual activity [11] 100% | residual activity [12] 83% | residual activity [13] 83% | residual activity [14] 88% | residual activity [15] 77% | residual activity [16] 81% | residual activity [17] 91% | residual activity [18] 86% | residual activity [19] 62% | residual activity [20] 87% | residual activity [21] 74% | residual activity [22] 100% | residual activity [23] 84% | residual activity [24] 100% | residual activity [25] 89% | residual activity [26] 89% | residual activity [27] 89% | residual activity [28] 77% | residual activity [29] 100% | residual activity [30] 95% | residual activity [31] 100% | inhibition [32] -8.33% | residual activity [33] 92% | residual activity [34] 59% | residual activity [35] 91% | residual activity [36] 76% | residual activity [37] 100% | residual activity [38] 68% | residual activity [39] 100%

NS(=O)(=O)c1cc(NC(=O)C2(c3ccccc3Cl)CC2)ccc1Oc1cccc(Cl)c1 [BAY-207]
inactive: residual activity [1] 100% | residual activity [2] 90% | residual activity [3] 100% | residual activity [4] 100% | residual activity [5] 100% | residual activity [6] 92% | residual activity [7] 91% | residual activity [8] 68% | residual activity [9] 100% | inhibition [10] 40.2% | residual activity [11] 70% | residual activity [12] 95% | residual activity [13] 100% | residual activity [14] 100% | residual activity [15] 74% | residual activity [16] 93% | residual activity [17] 100% | residual activity [18] 68% | residual activity [19] 71% | residual activity [20] 79% | residual activity [21] 100% | residual activity [22] 97% | residual activity [23] 100% | residual activity [24] 95% | residual activity [25] 86% | residual activity [26] 90% | residual activity [27] 88% | residual activity [28] 93% | residual activity [29] 89% | residual activity [30] 96% | residual activity [31] 100% | inhibition [32] 2.03% | residual activity [33] 56% | residual activity [34] 96% | residual activity [35] 81% | residual activity [36] 69% | residual activity [37] 100% | residual activity [38] 100% | residual activity [39] 96%
